This is an account of results in ChEMBL document CHEMBL6083271 (J Med Chem, 2024).

Activity calls are given as the source filed them. The rule behind the calls is not given here. A value given as a limit tells only on which side of the number the result lay.

Assay [1] deals with RS4-11. The experiment in a line: Antiproliferative activity against human RS4;11 cells harbouring p53 wild type assessed as inhibition of cell growth measured after 4 days by WST-8 assay. The class given is functional, cell-based. To be noted: RS4-11, 96 h. (In general: Tetrazolium assays rely on reduction of a dye to a coloured formazan, in cell work by metabolically active cells.)

Assay [2] concerns RS4-11. Kind of assay: Antiproliferative activity against human RS4;11 cells harbouring p53 mutant assessed as inhibition of cell growth measured after 4 days by WST-8 assay. It is filed as functional, cell-based. The following applies: RS4-11, 96 h.
Assay [3] concerns RS4-11. The experiment in a line: Antitumor activity against human RS4;11 cells xenografted in SCID mouse model assessed as tumor regression at 50 mg/kg, iv qd administered every other for 2 weeks by caliper method. It is filed as functional, organism-based. For orientation: A xenograft is tissue or cells of one species grown in another, often human tumour cells in immunodeficient mice.

Assay [4] relates to RS4-11. Kind of assay: Antiproliferative activity against human RS4;11 cells assessed as inhibition of cell growth measured after 4 days by WST-8 assay. The class given is functional, cell-based. The following applies: time 4.0 day.

As for `O=C1CCC(N2Cc3c(NC4CCN(CCNC(=O)c5ccc(NC(=O)[C@@H]6NC7(CCCCC7)[C@@]7(C(=O)Nc8cc(Cl)ccc87)[C@H]6c6cccc(Cl)c6F)cc5)CC4)cccc3C2=O)C(=O)N1` (stereo partly drawn), the IC50 – broadly, the concentration at which inhibition is half-maximal – in assay [1] is 8 nM; in assay [2], greater than 1000 nM.

Regarding `O=C1CCC(N2Cc3c(C#CCCCNC(=O)C4CCN(C(=O)[C@@H]5NC6(CCCCC6)[C@@]6(C(=O)Nc7cc(Cl)ccc76)C5c5cccc(Cl)c5F)CC4)cccc3C2=O)C(=O)N1` (single isomer, unassigned), the IC50 in assay [1] and in assay [2] was greater than 1000 nM in each case.

Take `O=C1CCC(N2Cc3c(NCC4CCN(C(=O)c5ccc(NC(=O)[C@@H]6NC7(CCCCC7)[C@@]7(C(=O)Nc8cc(Cl)ccc87)[C@H]6c6cccc(Cl)c6F)cc5)CC4)cccc3C2=O)C(=O)N1` (stereo partly drawn): the IC50 in assay [1] was 19 nM; in assay [2] it was greater than 1000 nM.

Regarding `O=C1CCC(N2Cc3c(NCC4CCN(CCNC(=O)c5ccc(NC(=O)[C@@H]6NC7(CCCCC7)[C@@]7(C(=O)Nc8cc(Cl)ccc87)[C@H]6c6cccc(Cl)c6F)cc5)CC4)cccc3C2=O)C(=O)N1` (stereo partly drawn), the half-maximal inhibitory concentration (IC50) in assay [1] was 9 nM; in assay [2] it was greater than 1000 nM.

In the case of `O=C1CCC(N2Cc3c(C#CCCCNC(=O)C45CCC(NC(=O)[C@@H]6NC7(CCCCC7)[C@@]7(C(=O)Nc8cc(Cl)ccc87)[C@H]6c6cccc(Cl)c6F)(CC4)CC5)cccc3C2=O)C(=O)N1` (stereo partly drawn), the 50% inhibitory concentration (IC50) in assay [1] is 3 nM; in assay [2], greater than 1000 nM.

As for `O=C1CCC(N2Cc3c(NC4CN(CCNC(=O)c5ccc(NC(=O)[C@@H]6NC7(CCCCC7)[C@@]7(C(=O)Nc8cc(Cl)ccc87)[C@H]6c6cccc(Cl)c6F)cc5)C4)cccc3C2=O)C(=O)N1` (stereo partly drawn), the figures for the IC50 in assay [1] and in assay [2] were 50 nM and greater than 1000 nM, respectively.

For the molecule `O=C1CCC(N2Cc3c(C#CCCCNC(=O)[C@H]4C[C@H](NC(=O)[C@@H]5NC6(CCCCC6)[C@@]6(C(=O)Nc7cc(Cl)ccc76)[C@H]5c5cccc(Cl)c5F)C4)cccc3C2=O)C(=O)N1` (stereo partly drawn), the results for the half-maximal inhibitory concentration (IC50) in assay [1] and in assay [2] were 3 nM and 7 nM, respectively.

As to `O=C1CCC(N2Cc3c(NCC4CN(C(=O)c5ccc(NC(=O)[C@@H]6NC7(CCCCC7)[C@@]7(C(=O)Nc8cc(Cl)ccc87)[C@H]6c6cccc(Cl)c6F)cc5)C4)cccc3C2=O)C(=O)N1` (stereo partly drawn), the IC50 in assay [1] was 19 nM; in assay [2] it was greater than 1000 nM.

As for `O=C1CCC(N2Cc3c(C#CCCCNC(=O)c4ccc(NC(=O)[C@@H]5NC6(CCCCC6)[C@@]6(C(=O)Nc7cc(Cl)ccc76)[C@H]5c5cccc(Cl)c5F)cn4)cccc3C2=O)C(=O)N1` (stereo partly drawn), the half-inhibitory concentration (IC50) in assay [1] was 7 nM; in assay [2], greater than 1000 nM.

Regarding `O=C1CCC(N2Cc3c(C#CCCCCN4CCC(NC(=O)C5CCC(NC(=O)[C@@H]6NC7(CCCCC7)[C@@]7(C(=O)Nc8cc(Cl)ccc87)[C@H]6c6cccc(Cl)c6F)CC5)CC4)cccc3C2=O)C(=O)N1` (stereo partly drawn), the 50% inhibitory concentration (IC50) in assay [1] and in assay [2] was greater than 1000 nM in each case.

`O=C1CCC(N2Cc3c(C#CCCCNC(=O)c4ccc(NC(=O)[C@@H]5NC6(CCCCC6)[C@@]6(C(=O)Nc7cc(Cl)ccc76)[C@H]5c5cccc(Cl)c5F)nc4)cccc3C2=O)C(=O)N1` (stereo partly drawn): the IC50 in assay [1] is 2 nM; in assay [2], greater than 1000 nM.

With `O=C1CCC(N2Cc3c(C#C[C@H]4CC[C@H](NC(=O)c5ccc(NC(=O)[C@@H]6NC7(CCCCC7)[C@@]7(C(=O)Nc8cc(Cl)ccc87)[C@H]6c6cccc(Cl)c6F)cc5)CC4)cccc3C2=O)C(=O)N1` (stereo partly drawn), the IC50 in assay [1] is 200 nM; in assay [2] it was greater than 1000 nM.

As for `O=C(CN1CCC(NC(=O)[C@@H]2NC3(CCCCC3)[C@@]3(C(=O)Nc4cc(Cl)ccc43)[C@H]2c2cccc(Cl)c2F)CC1)NCCCC#Cc1cccc2c1CN(C1CCC(=O)NC1=O)C2=O` (stereo partly drawn), the IC50 in assay [1] is 5 nM; in assay [2] it was greater than 1000 nM. Further, the result in assay [3] was inactive.

For `O=C1CCC(N2Cc3c(NC4CN(C(=O)c5ccc(NC(=O)[C@@H]6NC7(CCCCC7)[C@@]7(C(=O)Nc8cc(Cl)ccc87)[C@H]6c6cccc(Cl)c6F)cc5)C4)cccc3C2=O)C(=O)N1` (stereo partly drawn), the IC50 in assay [1] was 37 nM; in assay [2], greater than 1000 nM.

With `O=C1CCC(N2Cc3c(C#CCCCNC(=O)C45CCC(NC(=O)[C@@H]6NC7(CCCCC7)[C@@]7(C(=O)Nc8cc(Cl)ccc87)[C@H]6c6cccc(Cl)c6F)(CC4)C5)cccc3C2=O)C(=O)N1` (stereo partly drawn), the results for the IC50 in assay [1] and in assay [2] were 2 nM and 3 nM, respectively.

For `O=C1CCC(N2Cc3c(NC4CCN(C(=O)c5ccc(NC(=O)[C@@H]6NC7(CCCCC7)[C@@]7(C(=O)Nc8cc(Cl)ccc87)[C@H]6c6cccc(Cl)c6F)cc5)CC4)cccc3C2=O)C(=O)N1` (stereo partly drawn), the values for the IC50 in assay [1] and in assay [2] were 19 nM and 33 nM, respectively.

Take `O=C1CCC(N2Cc3c(CCC4CCN(C(=O)c5ccc(NC(=O)[C@@H]6NC7(CCCCC7)[C@@]7(C(=O)Nc8cc(Cl)ccc87)[C@H]6c6cccc(Cl)c6F)cc5)CC4)cccc3C2=O)C(=O)N1` (stereo partly drawn): the half-maximal inhibitory concentration (IC50) in assay [1] is 19 nM; in assay [2], greater than 1000 nM.

Turning to `O=C1CCC(N2Cc3c(C#CCCCNC(=O)c4ccc(NC(=O)[C@@H]5NC6(CCCCC6)[C@@]6(C(=O)Nc7cc(Cl)ccc76)[C@H]5c5cccc(Cl)c5F)cc4F)cccc3C2=O)C(=O)N1` (stereo partly drawn), the half-inhibitory concentration (IC50) was 3 nM in assay [1] and greater than 1000 nM in assay [2].

For the molecule `COc1cc(C(=O)NCCCC#Cc2cccc3c2CN(C2CCC(=O)NC2=O)C3=O)ccc1NC(=O)[C@@H]1NC2(CCCCC2)[C@@]2(C(=O)Nc3cc(Cl)ccc32)[C@H]1c1cccc(Cl)c1F` (stereo partly drawn), the IC50 in assay [1] was 8 nM; in assay [2], greater than 1000 nM.

Consider `O=C1CCC(N2Cc3c(CCc4cn(CCCNC(=O)c5ccc(NC(=O)[C@@H]6NC7(CCCCC7)[C@@]7(C(=O)Nc8cc(Cl)ccc87)[C@H]6c6cccc(Cl)c6F)cc5)cn4)cccc3C2=O)C(=O)N1` (stereo partly drawn), for which the values for the 50% inhibitory concentration (IC50) in assay [1] and in assay [2] were 7 nM and greater than 1000 nM, respectively. Further, in assay [3], the Activity result was “Active; Compound Showed Minimal Tumor Growth Inhibition”.

For `O=C1CCC(N2Cc3c(NCC4CN(CCNC(=O)c5ccc(NC(=O)[C@@H]6NC7(CCCCC7)[C@@]7(C(=O)Nc8cc(Cl)ccc87)[C@H]6c6cccc(Cl)c6F)cc5)C4)cccc3C2=O)C(=O)N1` (stereo partly drawn), the half-maximal inhibitory concentration (IC50) in assay [1] is 8 nM; in assay [2], greater than 1000 nM.

Regarding `CN1C(=O)CCC(N2Cc3c(C#CC4CCN(C(=O)[C@H]5CC[C@H](NC(=O)[C@@H]6NC7(CCCCC7)[C@@]7(C(=O)Nc8cc(Cl)ccc87)[C@H]6c6cccc(Cl)c6F)CC5)CC4)cccc3C2=O)C1=O` (stereo partly drawn), the Activity result in assay [4] is on record as “Active; Compound Showed Weaker Cell Growth Inhibition”.

Consider `O=C1CCC(N2Cc3c(C#CCCCNC(=O)C45CC(NC(=O)[C@@H]6NC7(CCCCC7)[C@@]7(C(=O)Nc8cc(Cl)ccc87)[C@H]6c6cccc(Cl)c6F)(C4)C5)cccc3C2=O)C(=O)N1` (stereo partly drawn), for which the figures for the IC50 in assay [1] and in assay [2] were 3 nM and 7 nM, respectively.

On to `O=C1CCC(N2Cc3c(CC[C@H]4CC[C@H](NC(=O)c5ccc(NC(=O)[C@@H]6NC7(CCCCC7)[C@@]7(C(=O)Nc8cc(Cl)ccc87)[C@H]6c6cccc(Cl)c6F)cc5)CC4)cccc3C2=O)C(=O)N1` (stereo partly drawn), for which the IC50 is 34 nM in assay [1] and greater than 1000 nM in assay [2].

On to `O=C1CCC(N2Cc3c(C#CCCCNC(=O)c4ccc(NC(=O)[C@@H]5NC6(CCCCC6)[C@@]6(C(=O)Nc7cc(Cl)ccc76)[C@H]5c5cccc(Cl)c5F)c(F)c4)cccc3C2=O)C(=O)N1` (stereo partly drawn), for which the figures for the IC50 in assay [1] and in assay [2] were 8 nM and greater than 1000 nM, respectively.

`COc1cc(NC(=O)[C@@H]2NC3(CCCCC3)[C@@]3(C(=O)Nc4cc(Cl)ccc43)[C@H]2c2cccc(Cl)c2F)ccc1C(=O)NCCCC#Cc1cccc2c1CN(C1CCC(=O)NC1=O)C2=O` (stereo partly drawn): the IC50 in assay [1] was 4 nM; in assay [2], greater than 1000 nM.
